These results are taken from patent US5229410A, “6-substituted-hexahydrobenz[cd]indoles” (Eli Lilly and Company, priority 1991, dated 1993).

Each structure is given as a SMILES string. Read-outs that look alike come from different tables or passages of the source.

The target in test [1] is T1, central 5-HT1D binding sites (Bos taurus, UniProt F1MGM3).
T1 construct: Bovine brains were obtained from Pel-Freeze Biologicals, and the caudate nuclei were dissected out; tissue Pel-Freeze Biologicals; host or cells: bovine caudate nuclei (washed membranes)
Briefly: 5-HT1D binding ([3H]5-HT displacement, bovine caudate nuclei membranes). Here is the method: The affinities of the compounds at the central 5-HT1D binding sites were determined using a modification of the binding assay described by Heuring and Peroutka (J. Neurosci. 7:894-903, 1987). Bovine brains were obtained from Pel-Freeze Biologicals, and the caudate nuclei were dissected out and frozen at -70° C. until the time that the membranes were prepared for the binding assays. At that time the tissues were homogenized in 40 volumes of ice-cold Tris-HCl buffer (50 mM, pH 7.4 at 22° C.) with a Techmar Tissumizer (setting 65 for 15 sec), and the homogenate was centrifuged at 39,800 g for 10 min. The resulting pellet was then resuspended in the same buffer, and the centrifugation and resuspension process was repeated three additional times to wash the membranes. Between the second and third washes the resuspended membranes were incubated for 10 min at 37° C. to facilitate the removal of endogenous 5-HT. The final pellet was resuspended in Tris buffer to a concentration of 25 mg of original tissue wet weight/ml for use in the binding assay. […] The assay tubes were incubated for 10 min at 37° C., and the contents were then rapidly filtered through GF/B filters (pretreated with 0.5% polyethylenimine), followed by four one-mL washes with ice-cold buffer. The radioactivity trapped by the filters was quantitated by liquid scintillation spectrometry, and specific [^3 H]5-HT binding to the 5-HT1D sites was defined as the difference between [^3 H]5-HT bound in the presence and absence of 10 μM 5-HT.
The affinities of compounds at the 5-HT1D receptor are expressed as IC50 values, i.e., the concentration required to inhibit 50% of the binding. These values were determined from 12-point competition curves using nonlinear regression (SYSTAT, SYSTAT, Inc., Evanston, Ill.).

A further test relates to serum corticosterone. In words: serum corticosterone in vivo after subcutaneous injection. The arrangement: species or system male albino rats. The conditions noted are these: 1 hour, * = P<0.05 vs control. How it is done:
(§1) Certain compounds were evaluated to determine their ability to affect the 5-hydroxyindoles serotonin, 5-hydroxyindole acetic acid (5HIAA) and serum corticosterone, in vivo, using the following procedures.
(§2) Compounds in aqueous solution were injected subcutaneously into male albino rats. Rats were decapitated one hour later. Trunk blood was collected and allowed to clot; after centrifugation, serum was stored frozen prior to analysis. Whole brain was removed and frozen on dry ice, then stored frozen prior to analysis. Serum corticosterone concentration was measured spectrofluorometrically (J. H. Solem and T. Brinch-Johnsen, "An evaluation of a method for determination of free corticosteroids in minute quantities of mouse plasma," Scand. J. Clin. Lab. Invest. (Suppl. 80), 1.14 (1965).) 5-Hydroxyindoleacetic acid (5HIAA) concentration in whole brain was measured by liquid chromatography with electrochemical detection. (Ray W. Fuller and Kenneth W. Perry, "Effects of buspirone and its metabolite, 1-(2-pyrimidinyl)piperazine, on brain monoamines and their metabolites in rats", J. Pharmacol. Exp. Ther. 248, 50-56 (1989).) The results are provided in Table III.

The subject of another test is Brain 5-hydroxyindoles. Briefly: brain 5-hydroxyindoles in vivo after subcutaneous injection. Also on record: species or system male albino rats. To be noted: 1 hour, * = P<0.05 vs control. How it is done: as §1, §2
The target in a further test is T2, central 5-HT1A receptors (Rattus norvegicus, UniProt P19327).
T2 construct: the brains were rapidly chilled and dissected to obtain the hippocampi; from tissue; host or cells: hippocampus of male Sprague-Dawley rats (washed membranes)
T2 sequence (P19327 1-422): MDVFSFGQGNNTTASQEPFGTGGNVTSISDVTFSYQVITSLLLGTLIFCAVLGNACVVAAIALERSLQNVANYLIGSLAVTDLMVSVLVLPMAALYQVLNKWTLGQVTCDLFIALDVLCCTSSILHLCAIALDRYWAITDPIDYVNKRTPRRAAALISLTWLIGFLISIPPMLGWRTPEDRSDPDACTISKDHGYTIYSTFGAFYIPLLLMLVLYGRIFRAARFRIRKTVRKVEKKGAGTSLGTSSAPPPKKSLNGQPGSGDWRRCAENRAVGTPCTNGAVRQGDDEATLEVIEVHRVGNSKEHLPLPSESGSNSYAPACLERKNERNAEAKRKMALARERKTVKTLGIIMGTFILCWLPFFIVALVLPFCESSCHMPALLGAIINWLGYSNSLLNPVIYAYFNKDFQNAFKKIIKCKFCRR
In words: 5-HT1A receptor binding ([3H]8-OH-DPAT displacement, rat hippocampal membranes). The arrangement: species or system male Sprague-Dawley rats. Here is the method:
The affinities of the compounds at the central 5-HT1A receptors were determined using a modification of the binding assay described by Taylor, et al., (J. Pharmacol. Exp. Ther. 236:118-125, 1986). Membranes for the binding assay were prepared from male Sprague-Dawley rats (150-250 g). The animals were killed by decapitation, and the brains were rapidly chilled and dissected to obtain the hippocampi. The hippocampi were either prepared that day or stored frozen (-70° C.) until the day of preparation. Membranes were prepared by homogenizing the tissue in 40 volumes of ice-cold Tris-HCl buffer (50 mM, pH 7.4 at 22° C.) using a Techmar Tissumizer (setting 65 for 15 sec), and the homogenate was centrifuged at 39800×g for 10 min. The resulting pellet was then resuspended in the same buffer, and the centrifugation and resuspension process was repeated three additional times to wash the membranes. Between the second and third washes the resuspended membranes were incubated for 10 min at 37° C. to facilitate the removal of endogenous ligands. The final pellet was resuspended in 67 mM Tris-HCl, pH 7.4, to a concentration of 2 mg of tissue original wet weight/200 μl. This homogenate was stored frozen (-70° C.) until the day of the binding assay. […] The assay tubes were incubated for 10 min at 37° C., and the contents were then rapidly filtered through GF/B filters (pretreated with 0.5% polyethylenimine), followed by four one-mL washes with ice cold buffer. The radioactivity trapped by the filters was quantitated by liquid scintillation spectrometry, and specific [^3 H]8-OH-DPAT binding to the 5-HT1A sites was defined as the difference between [^3 H]8-OH-DPAT bound in the presence and absence of 10 μM 5-HT.
The affinity of the particular compound at the 5-HT1A receptor is expressed as IC50 value, i.e., the concentration required to inhibit 50% of the binding. The IC50 values were determined from 12-point competition curves using nonlinear regression (SYSTAT, SYSTAT, INC., Evanston, Ill.).

Where [2] appears, read: [3H]5-HT 1.7-1.9 nM, bovine caudate, 8-OH-DPTA and mesulergine 100 nM as masks, pH 7.4, 37° C., 10 min, read-out: 5HT1D IC50 (concentration required to inhibit 50% of the binding).
Where [3] appears, read: [3H]8-OH-DPAT 1.0 nM, rat hippocampi, pH 7.4, 37° C., 10 min, read-out: 5HT1A IC50 (concentration required to inhibit 50% of the binding).

T1 sequence (F1MGM3 1-403): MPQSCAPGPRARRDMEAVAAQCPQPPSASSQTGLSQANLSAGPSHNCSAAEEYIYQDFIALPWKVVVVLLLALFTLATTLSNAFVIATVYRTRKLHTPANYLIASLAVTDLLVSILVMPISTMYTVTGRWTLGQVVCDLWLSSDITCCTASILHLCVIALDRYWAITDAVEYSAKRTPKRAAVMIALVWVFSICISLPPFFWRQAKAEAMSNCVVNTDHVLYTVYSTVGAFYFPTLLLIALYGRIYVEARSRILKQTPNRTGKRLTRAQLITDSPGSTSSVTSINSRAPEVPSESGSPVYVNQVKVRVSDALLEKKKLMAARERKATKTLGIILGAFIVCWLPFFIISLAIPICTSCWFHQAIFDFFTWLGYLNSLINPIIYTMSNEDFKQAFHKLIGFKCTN

With `CCCN(CCC)C1Cc2c(C(=O)C(C)C)ccc3c2C(CN3)C1` (single isomer, unassigned; (-)) [Example 9, (-)-6-(2-methylpropanoyl)-4-(di-n-propylamino)-1,2,2a,3,4,5-hexahydrobenz[cd]indole], the IC50 in test [1] (setting [2]) turned out to be 3130 nM; on central 5-HT1A receptors (setting [3]), 54.9 nM. Besides, the entries for the “Serum Corticosterone” value in the test with serum corticosterone (0.003 mg/Kg s.c.), in the test with serum corticosterone (0.03 mg/Kg s.c.) and in the test with serum corticosterone (0.3 mg/Kg s.c.) were 4.1 ± 0.5 μg/100 ml, 6.0 ± 1.6 μg/100 ml and 6.7 ± 2.0 μg/100 ml, respectively. The “Brain 5-HIAA” value was found to be 1.68 ± 0.10 n moles/g with Brain 5-hydroxyindoles (0.003 mg/Kg s.c.), 1.91 ± 0.06 n moles/g in the test on Brain 5-hydroxyindoles (0.03 mg/Kg s.c.) and 1.74 ± 0.04 n moles/g in the test with Brain 5-hydroxyindoles (0.3 mg/Kg s.c.). Further, the Brain serotonin came out at 1.83 ± 0.08 n moles/g with Brain 5-hydroxyindoles (0.003 mg/Kg s.c.), 1.90 ± 0.10 n moles/g in the test with Brain 5-hydroxyindoles (0.03 mg/Kg s.c.) and 1.69 ± 0.06 n moles/g in the test with Brain 5-hydroxyindoles (0.3 mg/Kg s.c.).

As for `CCCN(CCC)[C@@H]1Cc2c(C(=O)CC)ccc3c2[C@H](CN3)C1` [Example 10, (-)-(2aR,4S)-6-(propanoyl)-4-(di-n-propylamino)-1,2,2a,3,4,5-hexahydrobenz[cd]indole], the IC50 in test [1] (setting [2]) was determined as 9000 nM; on central 5-HT1A receptors (setting [3]) it was 9.47 nM.

For the compound `CCCN(CCC)[C@H]1Cc2c(C(=O)c3ccccc3)ccc3c2[C@@H](CN3)C1` [Example 12, (+)-(2aS,4R)-6-(benzoyl)-4-(di-n-propylamine)-1,2,2a,3,4,5-hexahydrobenz[cd]indole], the IC50 in test [1] (setting [2]) came out at 1.78 nM; at central 5-HT1A receptors (setting [3]) it was 0.34 nM.

Regarding `CCCN(CCC)[C@H]1Cc2c(C(=O)Cc3ccccc3)ccc3c2[C@@H](CN3)C1` [Example 13, (+)-(2aS,4R)-6-(2-phenylethanoyl)-4-(di-n-propylamino)-1,2,2a,3,4,5-hexahydrobenz[cd]indole], the IC50 in test [1] (setting [2]) was found to be 2.7 nM; on central 5-HT1A receptors (setting [3]), 0.98 nM.

Consider `CCCN(CCC)[C@H]1Cc2c(C(C)=O)ccc3c2[C@H](CN3)C1` [Example 4, (2aR,4R)-6-acetyl-4-(di-n-propylamino)-1,2,2a,3,4,5-hexahydrobenz[cd]indole], for which the IC50 in test [1] (setting [2]) was found to be 236 nM; on central 5-HT1A receptors (setting [3]), 0.8 nM.

Regarding `CCCN(CCC)[C@H]1Cc2c(C(C)=O)ccc3c2[C@@H](CN3)C1` [Example 6, (+)-(2aS,4R)-6-acetyl-4-(di-n-propylamino)-1,2,2a,3,4,5-hexahydrobenz[cd]indole], the IC50 in test [1] (setting [2]) was found to be 6.25 nM; at central 5-HT1A receptors (setting [3]), 0.3 nM. The entries for the “Serum Corticosterone” value in the test with serum corticosterone (0.003 mg/Kg s.c.), with serum corticosterone (0.03 mg/Kg s.c.) and with serum corticosterone (0.3 mg/Kg s.c.) were 5.8 ± 1.0 μg/100 ml, 10.6 ± 2.0 μg/100 ml and 42.2 ± 1.1 μg/100 ml, respectively. The “Brain 5-HIAA” value was determined as 1.81 ± 0.14 n moles/g in the test with Brain 5-hydroxyindoles (0.003 mg/Kg s.c.), 1.58 ± 0.08 n moles/g in the test with Brain 5-hydroxyindoles (0.03 mg/Kg s.c.) and 1.41 ± 0.03 n moles/g with Brain 5-hydroxyindoles (0.3 mg/Kg s.c.). In addition, the Brain serotonin was 2.46 ± 0.14 n moles/g in the test with Brain 5-hydroxyindoles (0.003 mg/Kg s.c.), 2.99 ± 0.06 n moles/g with Brain 5-hydroxyindoles (0.03 mg/Kg s.c.) and 3.08 ± 0.04 n moles/g with Brain 5-hydroxyindoles (0.3 mg/Kg s.c.).

Turning to `CCCN(CCC)[C@@H]1Cc2c(C(C)=O)ccc3c2[C@@H](CN3)C1` [Example 5, (2aS,4S)-6-acetyl-4-(di-n-propylamino)-1,2,2a,3,4,5-hexahydrobenz[cd]indole], the IC50 stood at 129 nM in test [1] (setting [2]) and 0.31 nM on central 5-HT1A receptors (setting [3]).

For the compound `CCCN(CCC)[C@@H]1Cc2c(C(C)=O)ccc3c2[C@H](CN3)C1` [Example 7, (-) (2aR,4S)-6-acetyl-4-(di-n-propylamino)-1,2,2a,3,4,5-hexahydrobenz[cd]indole], the IC50 in test [1] (setting [2]) was determined as 8500 nM; at central 5-HT1A receptors (setting [3]), 6.61 nM. For the same compound, the “Serum Corticosterone” value is 3.8 ± 0.5 μg/100 ml in the test on serum corticosterone (0.003 mg/Kg s.c.), 6.5 ± 2.6 μg/100 ml with serum corticosterone (0.03 mg/Kg s.c.) and 8.4 ± 4.0 μg/100 ml with serum corticosterone (0.3 mg/Kg s.c.). Moreover, the entries for the “Brain 5-HIAA” value in the test on Brain 5-hydroxyindoles (0.003 mg/Kg s.c.), with Brain 5-hydroxyindoles (0.03 mg/Kg s.c.) and in the test on Brain 5-hydroxyindoles (0.3 mg/Kg s.c.) were 2.06 ± 0.13 n moles/g, 1.87 ± 0.07 n moles/g and 1.77 ± 0.17 n moles/g, respectively. Moreover, the Brain serotonin in the test on Brain 5-hydroxyindoles (0.003 mg/Kg s.c.) turned out to be 2.75 ± 0.05 n moles/g; with Brain 5-hydroxyindoles (0.03 mg/Kg s.c.), 2.57 ± 0.10 n moles/g; with Brain 5-hydroxyindoles (0.3 mg/Kg s.c.), 2.85 ± 0.08 n moles/g.

For `CCCN(CCC)[C@H]1Cc2c(C(=O)C(C)C)ccc3c2[C@@H](CN3)C1` [Example 8, (+)-(2aS,4R)-6-(2-methylpropanoyl)-4-(di-n-propylamino)-1,2,2a,3,4,5-hexahydrobenz[cd]indole], the values for the IC50 (in test [1] (setting [2]); on central 5-HT1A receptors (setting [3])) were 1.24 nM and 0.25 nM, respectively. The results for the “Serum Corticosterone” value in the test with serum corticosterone (0.003 mg/Kg s.c.), in the test on serum corticosterone (0.03 mg/Kg s.c.) and with serum corticosterone (0.3 mg/Kg s.c.) were 3.6 ± 0.7 μg/100 ml, 27.1 ± 6.4 μg/100 ml and 42.0 ± 0.4 μg/100 ml, respectively. Further, the “Brain 5-HIAA” value was found to be 1.56 ± 0.10 n moles/g with Brain 5-hydroxyindoles (0.003 mg/Kg s.c.), 1.34 ± 0.06 n moles/g with Brain 5-hydroxyindoles (0.03 mg/Kg s.c.) and 1.30 ± 0.07 n moles/g in the test on Brain 5-hydroxyindoles (0.3 mg/Kg s.c.). Besides, the values for the Brain serotonin with Brain 5-hydroxyindoles (0.003 mg/Kg s.c.), with Brain 5-hydroxyindoles (0.03 mg/Kg s.c.) and with Brain 5-hydroxyindoles (0.3 mg/Kg s.c.) were 1.88 ± 0.05 n moles/g, 2.26 ± 0.06 n moles/g and 2.26 ± 0.16 n moles/g, respectively.

As for `CCCN(CCC)[C@H]1Cc2c(C(C)=O)ccc3c2[C@@H](CN3)C1` (relative stereo) [Example 3, 6-acetyl-4-(di-n-propylamino)-1,2,2a,3,4,5-hexahydrobenz[cd]indole], the IC50 in test [1] was 7.47 nM; on central 5-HT1A receptors, 0.63 nM.
